Active and inactive are the calls of the source. The rule behind the calls is not given here.
What was measured:
[1] = target: T1, Sodium- and chloride-dependent glycine transporter 1 (Homo sapiens) (UniProt P48067); assay: Competitive inhibition of GlyT1 (unknown origin) assessed as [14C]-glycine transport by Eadie-Hoffstee plot analysis
T1 sequence (whole entry): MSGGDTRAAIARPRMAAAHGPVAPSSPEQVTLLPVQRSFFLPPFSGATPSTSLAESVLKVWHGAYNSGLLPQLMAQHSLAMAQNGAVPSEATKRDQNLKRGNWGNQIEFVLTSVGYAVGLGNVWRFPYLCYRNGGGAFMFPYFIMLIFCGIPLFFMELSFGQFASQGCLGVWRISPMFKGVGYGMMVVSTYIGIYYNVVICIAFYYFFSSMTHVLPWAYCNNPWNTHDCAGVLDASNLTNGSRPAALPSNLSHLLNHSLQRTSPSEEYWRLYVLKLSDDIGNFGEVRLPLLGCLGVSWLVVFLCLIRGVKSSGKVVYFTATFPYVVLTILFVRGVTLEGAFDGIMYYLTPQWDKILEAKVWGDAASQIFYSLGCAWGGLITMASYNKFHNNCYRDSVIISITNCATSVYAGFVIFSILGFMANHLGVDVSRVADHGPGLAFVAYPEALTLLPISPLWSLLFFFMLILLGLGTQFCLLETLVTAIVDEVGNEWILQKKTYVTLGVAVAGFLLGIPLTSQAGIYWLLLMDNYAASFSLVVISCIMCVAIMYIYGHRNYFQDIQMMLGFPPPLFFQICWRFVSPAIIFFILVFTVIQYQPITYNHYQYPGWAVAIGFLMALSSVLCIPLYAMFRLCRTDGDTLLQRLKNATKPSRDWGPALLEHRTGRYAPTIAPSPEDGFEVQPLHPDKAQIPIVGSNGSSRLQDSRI

[2] = target: T2, Sodium- and chloride-dependent glycine transporter 2 (Homo sapiens, UniProt Q9Y345); assay: Inhibition of GlyT2 (unknown origin) assessed as [14C]-glycine transport
T2 sequence (Q9Y345 whole entry): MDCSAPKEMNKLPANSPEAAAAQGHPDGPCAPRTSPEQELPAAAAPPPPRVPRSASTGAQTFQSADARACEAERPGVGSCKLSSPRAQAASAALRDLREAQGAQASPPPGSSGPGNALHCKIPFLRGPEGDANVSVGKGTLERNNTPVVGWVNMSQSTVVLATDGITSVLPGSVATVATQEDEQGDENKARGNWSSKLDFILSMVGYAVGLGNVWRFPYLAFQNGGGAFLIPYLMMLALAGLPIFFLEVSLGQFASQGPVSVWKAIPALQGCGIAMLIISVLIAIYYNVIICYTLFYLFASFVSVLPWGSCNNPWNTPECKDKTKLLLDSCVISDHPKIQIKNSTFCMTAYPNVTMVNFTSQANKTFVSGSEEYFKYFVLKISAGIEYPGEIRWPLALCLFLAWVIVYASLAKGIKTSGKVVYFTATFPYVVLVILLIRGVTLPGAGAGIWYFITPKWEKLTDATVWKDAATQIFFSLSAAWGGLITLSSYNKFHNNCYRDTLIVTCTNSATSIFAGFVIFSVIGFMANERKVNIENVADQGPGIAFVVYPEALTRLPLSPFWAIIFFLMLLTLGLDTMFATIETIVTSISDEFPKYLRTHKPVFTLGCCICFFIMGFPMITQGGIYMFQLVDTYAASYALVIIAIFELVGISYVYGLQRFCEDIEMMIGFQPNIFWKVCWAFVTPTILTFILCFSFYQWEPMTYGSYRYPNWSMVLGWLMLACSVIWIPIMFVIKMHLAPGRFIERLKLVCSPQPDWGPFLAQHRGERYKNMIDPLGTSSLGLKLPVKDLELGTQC

[3] = target: T3, Sodium- and chloride-dependent glycine transporter 1 (Homo sapiens, UniProt P48067); assay: Inhibition of GlyT1 (unknown origin) assessed as [14C]-glycine transport
T3 sequence (P48067 whole entry): T1 sequence (whole entry)

[4] = Fraction unbound in rat; format: ADME; settings: in vitro
[5] = Metabolic stability in rat liver microsomes assessed as compound remaining after 90 mins; format: ADME; settings: read-out: Stability
[6] = Inhibition of CYP450 (unknown origin); format: ADME, Homo sapiens

Compound | competitive inhibition (active/inactive) [1] | IC50 [2] [µM] | IC50 [3] [µM] | also measured
CCCS(=O)(=O)N1CCC(C(NC(=O)c2ccc(Cl)cc2Cl)c2ccccc2)CC1 (racemic) | Active |  |  | 
Cn1cnc(S(=O)(=O)N2CCC(C(NC(=O)c3ccc(Cl)cc3Cl)c3cccs3)CC2)c1 (racemic) | Active |  |  | 
CCCS(=O)(=O)N1CC(C(NC(=O)c2ccc(Cl)cc2Cl)c2ccccc2)C1 (racemic) | Active |  |  | 
Cn1cnc(S(=O)(=O)N2CC(C(NC(=O)c3ccc(Cl)cc3Cl)c3ccccn3)C2)c1 (racemic) | Active |  |  | Fu [4]: 14%; remaining at 1.5 h [5]: 75%; IC50 [6]: > 10 µM
Cn1cnc(S(=O)(=O)N2CCC(C(NC(=O)c3ccc(Cl)cc3Cl)c3ccccc3)CC2)c1 (racemic) | Active |  |  | 
Cn1cnc(S(=O)(=O)N2CC(C(NC(=O)c3ccc(Cl)cc3Cl)c3cccs3)C2)c1 (racemic) | Active |  |  | 
Cn1cnc(S(=O)(=O)N2CC(C(NC(=O)c3ccc(Cl)cc3Cl)c3ccccc3)C2)c1 (racemic) | Active |  |  | 
Cn1cnc(S(=O)(=O)N2CCC(C(NC(=O)c3ccc(Cl)cc3Cl)c3ccccn3)CC2)c1 (racemic) | Active |  |  | 
O=C(NC1CCC2CN(S(=O)(=O)c3ccccn3)CC21)c1ccc(Cl)cc1Cl (racemic) |  | > 30 | > 10 | 
Cn1cnc(S(=O)(=O)N2CC3CCC(NC(=O)c4ccc(F)c(F)c4)C3C2)c1 (racemic) |  | > 30 | 1.57 | 
O=C(NC1CCC2CN(S(=O)(=O)c3ccccc3)CC21)c1ccc(Cl)cc1Cl (racemic) |  | > 30 | > 10 | 
Cn1cnc(S(=O)(=O)N2CC3CCC(NC(=O)c4ccccc4Cl)C3C2)c1 (racemic) |  | > 30 | 0.115 | 
Cn1cnc(S(=O)(=O)N2CC3CCC(NC(=O)C4CCCCC4)C3C2)c1 (racemic) |  | > 30 |  | 

Second part, led by results:

competitive inhibition (active/inactive) [1] | IC50 [2] [µM] | IC50 [3] [µM] | Compound | also measured
 | > 30 |  | Cn1cnc(S(=O)(=O)N2CC3CCC(NC(=O)c4c(F)cccc4F)C3C2)c1 (racemic) | 
 | > 30 |  | Cn1cnc(S(=O)(=O)N2CC3CCC(NC(=O)c4ccc(Cl)cc4)C3C2)c1 (racemic) | 
 | > 30 | > 10 | CCCCS(=O)(=O)N1CC2CCC(NC(=O)c3ccc(Cl)cc3Cl)C2C1 (racemic) | 
 | > 30 | > 10 | Cn1cnc(S(=O)(=O)N2CC3CCC(NC(=O)c4cccc(F)c4)C3C2)c1 (racemic) | 
 | > 30 |  | Cn1cnc(S(=O)(=O)N2CC3CCC(NC(=O)c4ccc(F)cc4F)C3C2)c1 (racemic) | 
 | > 30 |  | Cn1cnc(S(=O)(=O)N2CC3CCC(NC(=O)c4ccc(Cl)cc4Cl)C3C2)c1 (racemic) | Fu [4]: 8.1%; remaining at 1.5 h [5]: 30%; IC50 [6]: > 10 µM
 | > 30 |  | Cn1cnc(S(=O)(=O)N2CC3CCC(NC(=O)c4ccc(F)cc4)C3C2)c1 (racemic) | 
Active | > 30 | 0.112 | Cn1cnc(S(=O)(=O)N2CC3CCC(NC(=O)c4ccccc4C(F)(F)F)C3C2)c1 (racemic) | 
 | > 30 | > 10 | O=C(NC1CCC2CN(S(=O)(=O)c3cccs3)CC21)c1ccc(Cl)cc1Cl (racemic) | 
 | > 30 |  | Cn1cnc(S(=O)(=O)N2CC3CCC(NC(=O)c4ccc(Cl)c(Cl)c4)C3C2)c1 (racemic) | 
 | > 30 | > 10 | CCCS(=O)(=O)N1CC2CCC(NC(=O)c3ccc(Cl)cc3Cl)C2C1 (racemic) | 
 | > 30 |  | Cn1cnc(S(=O)(=O)N2CC3CCC(NC(=O)c4ccccc4F)C3C2)c1 (racemic) | 
 | > 30 | 0.015 | Cn1cc(S(=O)(=O)N2CC3CCC(NC(=O)c4ccc(Cl)cc4Cl)C3C2)nn1 (racemic) | 
 | > 30 | > 10 | CCS(=O)(=O)N1CC2CCC(NC(=O)c3ccc(Cl)cc3Cl)C2C1 (racemic) | 
